Assay: xn = mol fraction of the nth substance listed
Conditions: 100 kPa, Liquid; for viscosity: Capillary tube (Ostwald / Ubbelohde) method; for mass density: Vibrating tube method

O=C1CCCO1 [γ-butyrolactone] + CCCCCCCCn1cc[n+](C)c1.O=S(=O)([N-]S(=O)(=O)C(F)(F)F)C(F)(F)F
Conditions | mass density [kg/m3] | viscosity [mPa·s]
293.15 K, x2 = 0 | 1129.49 | 1.86
293.15 K, x2 = 0.0486 | 1168.04 | 2.77
293.15 K, x2 = 0.1001 | 1197.81 | 4
293.15 K, x2 = 0.1497 | 1219.5 | 5.49
293.15 K, x2 = 0.2006 | 1237.06 | 7.48
293.15 K, x2 = 0.3037 | 1262.89 | 12.83
293.15 K, x2 = 0.394 | 1278.72 | –
293.15 K, x2 = 0.4952 | 1292.01 | 29.29
293.15 K, x2 = 0.586 | 1300.99 | –
293.15 K, x2 = 0.7007 | 1309.94 | 54.57
293.15 K, x2 = 0.8081 | 1316.42 | –
293.15 K, x2 = 0.9003 | 1321 | 87.86
298.15 K, x2 = 0 | 1124.59 | 1.71
298.15 K, x2 = 0.0486 | 1163.25 | 2.53
298.15 K, x2 = 0.1001 | 1193.1 | 3.64
298.15 K, x2 = 0.1497 | 1214.96 | 4.9
298.15 K, x2 = 0.2006 | 1232.47 | 6.56
298.15 K, x2 = 0.3037 | 1258.37 | 10.89
298.15 K, x2 = 0.394 | 1274.26 | –
298.15 K, x2 = 0.4952 | 1287.58 | 23.62
298.15 K, x2 = 0.586 | 1296.61 | –
298.15 K, x2 = 0.7007 | 1305.54 | 42.86
298.15 K, x2 = 0.8081 | 1312.07 | –
298.15 K, x2 = 0.9003 | 1316.57 | 68
303.15 K, x2 = 0 | 1119.68 | 1.58
303.15 K, x2 = 0.0486 | 1158.47 | 2.31
303.15 K, x2 = 0.1001 | 1188.35 | 3.26
303.15 K, x2 = 0.1497 | 1210.25 | 4.41
303.15 K, x2 = 0.2006 | 1227.82 | 5.8
303.15 K, x2 = 0.3037 | 1253.81 | 9.44
303.15 K, x2 = 0.394 | 1269.73 | –
303.15 K, x2 = 0.4952 | 1283.09 | 19.3
303.15 K, x2 = 0.586 | 1292.14 | –
303.15 K, x2 = 0.7007 | 1301.1 | 34.7
303.15 K, x2 = 0.8081 | 1307.63 | –
303.15 K, x2 = 0.9003 | 1312.16 | 53.86
308.15 K, x2 = 0 | 1114.78 | 1.47
308.15 K, x2 = 0.0486 | 1153.69 | 2.12
308.15 K, x2 = 0.1001 | 1183.64 | 2.96
308.15 K, x2 = 0.1497 | 1205.57 | 3.97
308.15 K, x2 = 0.2006 | 1223.18 | 5.15
308.15 K, x2 = 0.3037 | 1249.22 | 8.26
308.15 K, x2 = 0.394 | 1265.2 | –
308.15 K, x2 = 0.4952 | 1278.6 | 16.57
308.15 K, x2 = 0.586 | 1287.67 | –
308.15 K, x2 = 0.7007 | 1296.66 | 28.87
308.15 K, x2 = 0.8081 | 1303.22 | –
308.15 K, x2 = 0.9003 | 1307.76 | 43.53
313.15 K, x2 = 0 | 1109.87 | 1.37
313.15 K, x2 = 0.0486 | 1148.89 | 1.96
313.15 K, x2 = 0.1001 | 1178.93 | 2.72
313.15 K, x2 = 0.1497 | 1200.87 | 3.61
313.15 K, x2 = 0.2006 | 1218.54 | 4.62
313.15 K, x2 = 0.3037 | 1244.66 | 7.27
313.15 K, x2 = 0.394 | 1260.67 | –
313.15 K, x2 = 0.4952 | 1274.11 | 13.95
313.15 K, x2 = 0.586 | 1283.2 | –
313.15 K, x2 = 0.7007 | 1292.22 | 23.79
313.15 K, x2 = 0.8081 | 1298.8 | –
313.15 K, x2 = 0.9003 | 1303.36 | 35.68
318.15 K, x2 = 0 | 1104.96 | 1.28
318.15 K, x2 = 0.0486 | 1144.1 | 1.82
318.15 K, x2 = 0.1001 | 1174.21 | 2.49
318.15 K, x2 = 0.1497 | 1196.2 | 3.23
318.15 K, x2 = 0.2006 | 1213.93 | 4.17
318.15 K, x2 = 0.3037 | 1240.09 | 6.47
318.15 K, x2 = 0.394 | 1256.15 | –
318.15 K, x2 = 0.4952 | 1269.61 | 12
318.15 K, x2 = 0.586 | 1278.74 | –
318.15 K, x2 = 0.7007 | 1287.82 | 19.85
318.15 K, x2 = 0.8081 | 1294.4 | –
318.15 K, x2 = 0.9003 | 1298.97 | 29.79
323.15 K, x2 = 0 | 1100.05 | 1.2
323.15 K, x2 = 0.0486 | 1139.34 | 1.69
323.15 K, x2 = 0.1001 | 1169.52 | 2.29
323.15 K, x2 = 0.1497 | 1191.56 | 2.95
323.15 K, x2 = 0.2006 | 1209.34 | 3.78
323.15 K, x2 = 0.3037 | 1235.56 | 5.8
323.15 K, x2 = 0.394 | 1251.63 | –
323.15 K, x2 = 0.4952 | 1265.15 | 10.5
323.15 K, x2 = 0.586 | 1274.3 | –
323.15 K, x2 = 0.7007 | 1283.4 | 16.69
323.15 K, x2 = 0.8081 | 1290.01 | –
323.15 K, x2 = 0.9003 | 1294.6 | 25.43
